Values joined by “and” are separate entries in the source; they are usually repeats but may differ in a detail not shown here. Identical values can stand only once. Inconclusive results and toxic doses are left out.
Tested on: P388 leukemia ip, CD2F1 mice, survival T/C
Assay: NCI In Vivo Anticancer Drug Screen. Data for tumor model P388 Leukemia (intraperitoneal) in CD2F1 (CDF1) mice
Conditions: endpoint: median survival time, higher = longer survival
How it was run: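 Mice carrying the transplanted tumor received test compound or vehicle. Survival was recorded in each group, and the value is the treated-group measurement divided by that of the vehicle-treated control group.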

[1] = dose: 50.0 mg/kg/injection, schedule: Q01DX009 (ip), vehicle: saline
[2] = dose: 100.0 mg/kg/injection, schedule: Q01DX009 (ip), vehicle: saline
[3] = dose: 200.0 mg/kg/injection, schedule: Q01DX009 (ip), vehicle: saline
[4] = dose: 15.0 mg/kg/injection, schedule: Q01DX005 (ip), vehicle: saline with Tween-80
[5] = dose: 30.0 mg/kg/injection, schedule: Q01DX005 (ip), vehicle: saline with Tween-80
[6] = dose: 25.0 mg/kg/injection, schedule: Q01DX009 (ip), vehicle: saline
[7] = dose: 200.0 mg/kg/injection, schedule: Q01DX009 (ip), vehicle: saline with Tween-80
[8] = dose: 60.0 mg/kg/injection, schedule: Q01DX005 (ip), vehicle: saline with Tween-80
[9] = dose: 120.0 mg/kg/injection, schedule: Q01DX005 (ip), vehicle: saline with Tween-80
[10] = dose: 240.0 mg/kg/injection, schedule: Q01DX005 (ip), vehicle: saline with Tween-80
[11] = dose: 100.0 mg/kg/injection, schedule: Q04DX003 (ip), vehicle: saline
[12] = dose: 50.0 mg/kg/injection, schedule: Q01DX009 (ip), vehicle: saline with Tween-80
[13] = dose: 100.0 mg/kg/injection, schedule: Q01DX009 (ip), vehicle: saline with Tween-80
[14] = dose: 60.0 mg/kg/injection, schedule: Q01DX005 (ip), vehicle: saline

CN(C)CCCOC(=O)Cc1cccc2c(=O)cc(-c3ccccc3)oc12
T/C [1]: 101 % of control | T/C [2]: 99 % of control | T/C [3]: 118 % of control

COC1=CC[C@H]2[C@H]3Cc4ccc(OC)c5c4[C@@]2(CCN3CC2CC2)C1O5 (stereo partly specified)
T/C (dose: 100.0 mg/kg/injection, schedule: Q04DX002 (ip), vehicle: Klucel (hydroxypropylcellulose) (HPC)): 97 % of control | T/C (dose: 200.0 mg/kg/injection, schedule: Q04DX002 (ip), vehicle: Klucel (hydroxypropylcellulose) (HPC)): 102 % of control

CC1=NCC[N-]CC[N-]CCN=C(C)C2CCCC1[N-]2.[Mn+3]
T/C (dose: 7.5 mg/kg/injection, schedule: Q01DX005 (ip), vehicle: saline with Tween-80): 100 % of control | T/C [4]: 96 % of control | T/C [5]: 96 % of control

O=C(O)C1CC(Cl)C(O)C(Cl)C1 (stereo unspecified)
T/C (dose: 50.0 mg/kg/injection, schedule: Q01DX005 (ip), vehicle: saline with Tween-80): 100 % of control | T/C (dose: 100.0 mg/kg/injection, schedule: Q01DX005 (ip), vehicle: saline with Tween-80): 97 % of control | T/C (dose: 200.0 mg/kg/injection, schedule: Q01DX005 (ip), vehicle: saline with Tween-80): 100 % of control

COC(=O)C1(CC(=O)/C=C/c2ccccc2)NC(=S)NC(=O)C1C#N (stereo unspecified)
T/C (dose: 30.0 mg/kg/injection, schedule: Q01DX005 (ip), vehicle: Klucel (hydroxypropylcellulose) (HPC)): 102 % of control | T/C (dose: 60.0 mg/kg/injection, schedule: Q01DX005 (ip), vehicle: Klucel (hydroxypropylcellulose) (HPC)): 91 % of control and 92 % of control | T/C (dose: 240.0 mg/kg/injection, schedule: Q01DX005 (ip), vehicle: Klucel (hydroxypropylcellulose) (HPC)): 92 % of control

Cc1cc(=O)n2[nH]c(-c3ccc(Cl)cc3)nc2n1
T/C (dose: 50.0 mg/kg/injection, schedule: Q01DX009 (ip), vehicle: Klucel (hydroxypropylcellulose) (HPC)): 106 % of control | T/C (dose: 100.0 mg/kg/injection, schedule: Q01DX009 (ip), vehicle: Klucel (hydroxypropylcellulose) (HPC)): 103 % of control | T/C (dose: 200.0 mg/kg/injection, schedule: Q01DX009 (ip), vehicle: Klucel (hydroxypropylcellulose) (HPC)): 100 % of control

COC(=O)C(CSCc1ccccc1)NC(=O)CCNC(=O)c1ccccc1 (stereo unspecified)
T/C (dose: 12.5 mg/kg/injection, schedule: Q01DX009 (ip), vehicle: distilled water + Tween-80): 100 % of control | T/C (dose: 25.0 mg/kg/injection, schedule: Q01DX009 (ip), vehicle: distilled water + Tween-80): 94 % of control | T/C (dose: 50.0 mg/kg/injection, schedule: Q01DX009 (ip), vehicle: distilled water + Tween-80): 98 % of control | T/C (dose: 100.0 mg/kg/injection, schedule: Q01DX009 (ip), vehicle: distilled water + Tween-80): 91 % of control | T/C (dose: 200.0 mg/kg/injection, schedule: Q01DX009 (ip), vehicle: distilled water + Tween-80): 111 % of control

Cc1ccc2c[n+]3ccccc3c(-c3ccccc3)c2c1
T/C (dose: 1.56 mg/kg/injection, schedule: Q04DX003 (ip), vehicle: Klucel (hydroxypropylcellulose) (HPC)): 100 % of control | T/C (dose: 3.12 mg/kg/injection, schedule: Q04DX003 (ip), vehicle: Klucel (hydroxypropylcellulose) (HPC)): 100 % of control

OCc1ccc(CO)cc1
T/C (dose: 100.0 mg/kg/injection, schedule: Q04DX003 (ip), vehicle: saline sonified): 104 % of control | T/C (dose: 200.0 mg/kg/injection, schedule: Q04DX003 (ip), vehicle: saline sonified): 100 % of control | T/C (dose: 400.0 mg/kg/injection, schedule: Q04DX003 (ip), vehicle: saline sonified): 100 % of control

CN1CCCN(C(c2ccccc2)c2ccc(Br)cc2)CC1 (stereo unspecified)
T/C [6]: 97 % of control | T/C [1]: 103 % of control | T/C [2]: 101 % of control and 91 % of control

Nc1nc(Cl)c2ncn(C3OC(CO)C(O)C3O)c2n1 (stereo unspecified)
T/C [7]: 98 % of control | T/C (dose: 400.0 mg/kg/injection, schedule: Q01DX009 (ip), vehicle: saline with Tween-80): 100 % of control

COC(=O)/C(=C1/OC(=O)C(c2ccc(Cl)cc2)=C1O)c1ccc(OC)cc1
T/C (dose: 50.0 mg/kg/injection, schedule: Q01DX005 (ip), vehicle: Klucel (hydroxypropylcellulose) (HPC)): 102 % of control | T/C (dose: 100.0 mg/kg/injection, schedule: Q01DX005 (ip), vehicle: Klucel (hydroxypropylcellulose) (HPC)): 94 % of control

CCOP(=O)(OCC)C1CCCN2CCc3c([nH]c4ccccc34)C12 (stereo unspecified)
T/C (dose: 12.5 mg/kg/injection, schedule: Q01DX009 (ip), vehicle: saline): 98 % of control | T/C [6]: 96 % of control | T/C [1]: 100 % of control and 89 % of control | T/C [3]: 100 % of control

O=C(c1ccccc1)N(C(=S)N(C(=O)c1ccccc1)c1ccccc1)c1ccccc1
T/C [8]: 100 % of control | T/C [9]: 91 % of control | T/C [10]: 95 % of control

O=C(O)C1CCC[N-]1.[Cl][Pt][Cl] (stereo unspecified)
T/C (dose: 25.0 mg/kg/injection, schedule: Q04DX003 (ip), vehicle: water): 110 % of control | T/C (dose: 50.0 mg/kg/injection, schedule: Q04DX003 (ip), vehicle: water): 94 % of control | T/C [11]: 157 % of control | T/C (dose: 150.0 mg/kg/injection, schedule: Q04DX003 (ip), vehicle: saline): 157 % of control

CC(N)C(=O)Nc1ccc(C(=O)O)c(O)c1 (stereo unspecified)
T/C [8]: 100 % of control | T/C [9]: 102 % of control | T/C [10]: 93 % of control

CN=C(N)N/N=C(\C)c1ccc(Cl)c(Cl)c1
T/C (dose: 25.0 mg/kg/injection, schedule: Q04DX002 (ip), vehicle: saline with Tween-80): 100 % of control | T/C (dose: 50.0 mg/kg/injection, schedule: Q04DX002 (ip), vehicle: saline with Tween-80): 99 % of control

O=C1C2=C(OCO2)C(=O)C2=C1OCO2
T/C [4]: 104 % of control | T/C [5]: 101 % of control | T/C [8]: 106 % of control

O=c1[nH]cnc2cc3c(cc12)nc1n3CCOC1
T/C [11]: 109 % of control | T/C (dose: 200.0 mg/kg/injection, schedule: Q04DX003 (ip), vehicle: saline): 105 % of control

CC(=O)OC1CCC2(C)C(=CCC3C2CCC2(C)C3CC3N(c4ccccc4Cl)C32C(C)=O)C1 (stereo unspecified)
T/C (dose: 25.0 mg/kg/injection, schedule: Q01DX001 (ip), vehicle: saline with Tween-80): 93 % of control | T/C (dose: 50.0 mg/kg/injection, schedule: Q01DX001 (ip), vehicle: saline with Tween-80): 95 % of control | T/C (dose: 100.0 mg/kg/injection, schedule: Q01DX001 (ip), vehicle: saline with Tween-80): 99 % of control and 90 % of control | T/C (dose: 400.0 mg/kg/injection, schedule: Q01DX001 (ip), vehicle: saline with Tween-80): 89 % of control

Nc1ncc2c(=O)c3c(ccc4ccccc43)oc2n1
T/C (dose: 12.5 mg/kg/injection, schedule: Q01DX009 (ip), vehicle: saline with Tween-80): 96 % of control | T/C (dose: 25.0 mg/kg/injection, schedule: Q01DX009 (ip), vehicle: saline with Tween-80): 98 % of control | T/C [12]: 90 % of control | T/C [13]: 87 % of control

CCN(CC)CCOc1ccccc1/C=C/c1noc2ccccc12
T/C (dose: 15.0 mg/kg/injection, schedule: Q01DX005 (ip), vehicle: saline): 94 % of control | T/C (dose: 30.0 mg/kg/injection, schedule: Q01DX005 (ip), vehicle: saline): 91 % of control | T/C [14]: 98 % of control

N#CC(C#N)=C(O)/C(=C/c1ccc([N+](=O)[O-])cc1)NC(=O)c1ccccc1
T/C [14]: 95 % of control | T/C (dose: 120.0 mg/kg/injection, schedule: Q01DX005 (ip), vehicle: saline): 100 % of control | T/C (dose: 240.0 mg/kg/injection, schedule: Q01DX005 (ip), vehicle: saline): 95 % of control

CC(C)(O)CCC(=O)[C@](C)(O)[C@H]1[C@H](O)C[C@@]2(C)[C@@H]3CC=C4[C@@H](C[C@@H](O)[C@@H](O)C4(C)C)[C@]3(C)C(=O)C[C@]12C
T/C (dose: 1.25 mg/kg/injection, schedule: Q01DX005 (ip), vehicle: saline with Tween-80): 100 % of control | T/C (dose: 2.5 mg/kg/injection, schedule: Q01DX005 (ip), vehicle: saline with Tween-80): 97 % of control | T/C (dose: 5.0 mg/kg/injection, schedule: Q01DX005 (ip), vehicle: saline with Tween-80): 95 % of control | T/C (dose: 10.0 mg/kg/injection, schedule: Q01DX005 (ip), vehicle: saline with Tween-80): 104 % of control

CCOC(=O)c1ccc(NC)cc1
T/C [12]: 105 % of control | T/C [13]: 102 % of control | T/C [7]: 118 % of control

Source: PubChem BioAssay AID330 (DTP/NCI, 2004)
